Reference: paper PMC8900826, “Structural basis for substrate recognition in the Phytolacca americana glycosyltransferase PaGT3” (Acta Crystallographica. Section D, Structural Biology, 2022)

Key:
Test in all cases: X-ray crystal structure, […] A
Type in all cases: binding
[1] = target: T1, PaGT3 (Phytolacca americana, UniProt B5MGN9); conditions: co-crystallized without acceptor; sugar-donor site; non-transferred donor analogue; also bound in 7vej and 7vek
T1 construct: full length; N-terminal His6 tag with TEV site, cut off (one Gly left before Met1); expressed in E. coli BL21 (DE3); two molecules in the asymmetric unit
T1 sequence (B5MGN9 entry or part of it): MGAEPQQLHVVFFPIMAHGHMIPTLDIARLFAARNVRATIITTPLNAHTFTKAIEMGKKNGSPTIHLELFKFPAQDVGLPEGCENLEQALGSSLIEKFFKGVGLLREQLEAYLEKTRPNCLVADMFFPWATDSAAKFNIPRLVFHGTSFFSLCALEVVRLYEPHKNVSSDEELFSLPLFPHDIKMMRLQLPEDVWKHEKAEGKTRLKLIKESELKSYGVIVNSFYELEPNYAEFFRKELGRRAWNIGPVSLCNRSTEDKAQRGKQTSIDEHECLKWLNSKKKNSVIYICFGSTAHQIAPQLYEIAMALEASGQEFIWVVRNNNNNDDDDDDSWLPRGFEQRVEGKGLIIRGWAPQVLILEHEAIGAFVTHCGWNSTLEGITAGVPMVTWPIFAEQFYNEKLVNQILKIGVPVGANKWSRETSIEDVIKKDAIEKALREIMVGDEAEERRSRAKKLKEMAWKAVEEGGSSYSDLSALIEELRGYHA

[2] = target: T1, PaGT3; conditions: soaked into PaGT3/UDP-2FGlc crystals; acceptor site, molecule B only, occupancy 0.8
[3] = target: T1, PaGT3; conditions: co-crystallized with UDP-2FGlc; acceptor site, both molecules, two different positions

O=c1ccn([C@@H]2O[C@H](COP(=O)(O)OP(=O)(O)O[C@H]3O[C@H](CO)[C@@H](O)[C@H](O)[C@H]3F)[C@@H](O)[C@H]2O)c(=O)[nH]1 [UDP-2FGlc]
X-ray crystal structure, 2.20 A [1]: The crystal structure of PaGT3 with the sugar-donor analogue UDP-2FGlc was determined

COc1cc(CNC(=O)CCCC/C=C/C(C)C)ccc1O [capsaicin]
X-ray crystal structure, 2.60 A [2]: The calculated polder map confirms the occupancy of capsaicin in PaGT3 molecule B.

O=c1c(O)c(-c2ccc(O)cc2)oc2cc(O)cc(O)c12 [kaempferol]
X-ray crystal structure, 1.85 A [3]: The electron density of kaempferol in both molecules of the enzyme
